What all share (format): biochemical
Holding throughout (details): 3 μM; percent of control kinase activity

One experiment concerns the target T1, CHK1(h) (Homo sapiens, UniProt O14757).
T1 sequence (O14757 1-476): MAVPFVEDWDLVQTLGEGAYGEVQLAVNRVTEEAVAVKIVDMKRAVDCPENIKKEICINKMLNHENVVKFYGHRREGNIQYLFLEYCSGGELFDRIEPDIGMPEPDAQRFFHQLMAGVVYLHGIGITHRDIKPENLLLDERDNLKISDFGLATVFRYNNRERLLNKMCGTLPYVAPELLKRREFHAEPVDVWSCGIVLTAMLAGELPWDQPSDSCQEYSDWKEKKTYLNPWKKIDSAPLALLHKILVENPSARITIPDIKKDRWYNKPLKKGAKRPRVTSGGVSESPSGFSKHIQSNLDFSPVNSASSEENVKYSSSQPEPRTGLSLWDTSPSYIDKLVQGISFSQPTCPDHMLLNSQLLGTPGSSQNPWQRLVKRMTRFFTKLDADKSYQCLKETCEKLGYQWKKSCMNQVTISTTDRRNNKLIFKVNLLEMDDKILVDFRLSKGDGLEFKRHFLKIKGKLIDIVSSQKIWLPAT
Kind of experiment: CHK1(h) kinase assay. On the procedure:
(§1) Six compounds (presumptive single agents) were tested against a panel of 50 kinases. The results are presented in Table 2; numbers for each kinase indicate the percent of control kinase activity in the presence of a 3μM concentration of the indicated agent.
(§2) Agents that target two or more different kinases are useful in the methods of the invention as described elsewhere herein. Such compounds may be identified, and their effect on certain kinases may be identified, using the assays briefly described below in Examples 4-83. Each of these assays was carried out as described in Davies et al., Biochem. J., 351:95-105 (2000). All assays were carried out at 10 μM ATP unless otherwise noted.
(§3) In a final reaction volume of 25 μl, CHK1(h) (5-10 mU) is incubated with 8 mM MOPS pH 7.0,0.2 mM EDTA, 200 μM […] (SEQ ID NO:5), 10 mM MgAcetate and [γ-^33P-ATP] (specific activity approx. 500 cpm/pmol, concentration as required). The reaction is initiated by the addition of Mg^2+ [γ-^33P-ATP]. After incubation for 40 minutes at room temperature, the reaction is stopped by the addition of 5 μl of a 3% phosphoric acid solution. 10 μl of the reaction is then spotted onto a P30 filtermat and washed three times for 5 minutes in 75 mM phosphoric acid and once in methanol prior to drying and scintillation counting.

For a further experiment, the target named is CHK2(h) (Homo sapiens, UniProt O96017). Kind of experiment: CHK2(h) kinase assay. The procedure: as §1, §2
CHK2(h), sequence (O96017 whole entry): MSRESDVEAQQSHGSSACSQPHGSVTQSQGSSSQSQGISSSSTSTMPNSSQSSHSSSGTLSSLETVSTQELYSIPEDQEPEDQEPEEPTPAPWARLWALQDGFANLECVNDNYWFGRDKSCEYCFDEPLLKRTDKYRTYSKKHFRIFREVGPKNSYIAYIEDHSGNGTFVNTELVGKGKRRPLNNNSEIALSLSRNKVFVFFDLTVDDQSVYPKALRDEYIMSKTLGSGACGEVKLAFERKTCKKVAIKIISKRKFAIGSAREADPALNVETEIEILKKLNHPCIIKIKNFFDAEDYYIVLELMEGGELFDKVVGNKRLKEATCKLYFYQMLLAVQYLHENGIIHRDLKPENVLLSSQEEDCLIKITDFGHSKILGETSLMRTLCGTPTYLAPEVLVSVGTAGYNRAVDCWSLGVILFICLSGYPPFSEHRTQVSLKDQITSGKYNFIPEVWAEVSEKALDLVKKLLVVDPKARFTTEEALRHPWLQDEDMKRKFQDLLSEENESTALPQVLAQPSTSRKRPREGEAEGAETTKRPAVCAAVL
as §3, with “CHK2 (h)” for “CHK1(h)”

The target of the next experiment is PDGFRα(h) (Homo sapiens, UniProt P16234). Briefly: PDGFRα(h) kinase assay. On the procedure:
as §1, §2
In a final reaction volume of 25 μl, PDGFRα (h) (5-10 mU) is incubated with 8 mM MOPS pH 7.0, 0.2 mM EDTA, 0.1 mg/ml poly(Glu, Tyr) 4:1, 10 mM MnCl2, 10 mM MgAcetate and [γ-^33P-ATP] (specific activity approx. 500 cpm/pmol, concentration as required). The reaction is initiated by the addition of Mg^2+ [γ-^33P-ATP]. After incubation for 40 minutes at room temperature, the reaction is stopped by the addition of 5 μl of a 3% phosphoric acid solution. 10 μl of the reaction is then spotted onto a Filtermat A and washed three times for 5 minutes in 75 mM phosphoric acid and once in methanol prior to drying and scintillation counting.

In the next experiment the target is T2, PKCε(h) (Homo sapiens, UniProt Q02156).
T2 sequence (Q02156 1-737): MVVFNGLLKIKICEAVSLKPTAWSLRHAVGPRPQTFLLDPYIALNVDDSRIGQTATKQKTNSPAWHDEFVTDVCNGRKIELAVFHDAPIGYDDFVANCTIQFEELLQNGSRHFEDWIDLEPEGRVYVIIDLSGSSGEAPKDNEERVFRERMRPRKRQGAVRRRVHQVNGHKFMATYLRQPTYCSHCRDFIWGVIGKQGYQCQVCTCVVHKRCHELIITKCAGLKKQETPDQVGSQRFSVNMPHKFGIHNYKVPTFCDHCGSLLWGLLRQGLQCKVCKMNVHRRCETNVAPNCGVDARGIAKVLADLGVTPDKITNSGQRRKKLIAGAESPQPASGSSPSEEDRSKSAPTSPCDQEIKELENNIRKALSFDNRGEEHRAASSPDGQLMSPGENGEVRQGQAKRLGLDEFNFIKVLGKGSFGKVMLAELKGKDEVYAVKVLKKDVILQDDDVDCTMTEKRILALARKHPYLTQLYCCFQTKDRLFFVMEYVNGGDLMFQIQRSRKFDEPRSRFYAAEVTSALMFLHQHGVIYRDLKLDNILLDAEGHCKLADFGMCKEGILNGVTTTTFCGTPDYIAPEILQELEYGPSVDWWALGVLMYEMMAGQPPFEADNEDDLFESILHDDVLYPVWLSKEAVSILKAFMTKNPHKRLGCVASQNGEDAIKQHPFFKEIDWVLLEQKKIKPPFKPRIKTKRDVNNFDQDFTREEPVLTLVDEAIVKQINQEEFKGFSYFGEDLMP
Briefly: PKCε(h) kinase assay. The procedure:
as §1, §2
as §3, with “PKCε(h)” for “CHK1(h)”, “20” for “8”, “Hepes” for “MOPS”, “7.4, 0.03% Triton X-100, 0.1 mg/ml phosphatidylserine, 10 μg/ml diacylglycerol, 50” for “7.0,0.2 mM EDTA, 200”, “NO: 18),” for “NO:5),”, “(Specific” for “(specific”

Six compounds from US20050107386A1, “Methods of treating diseases and disorders by targeting multiple kinases” (priority 2003, published 2005) can be followed below.

PDGFRα(h), sequence (P16234 24-1089): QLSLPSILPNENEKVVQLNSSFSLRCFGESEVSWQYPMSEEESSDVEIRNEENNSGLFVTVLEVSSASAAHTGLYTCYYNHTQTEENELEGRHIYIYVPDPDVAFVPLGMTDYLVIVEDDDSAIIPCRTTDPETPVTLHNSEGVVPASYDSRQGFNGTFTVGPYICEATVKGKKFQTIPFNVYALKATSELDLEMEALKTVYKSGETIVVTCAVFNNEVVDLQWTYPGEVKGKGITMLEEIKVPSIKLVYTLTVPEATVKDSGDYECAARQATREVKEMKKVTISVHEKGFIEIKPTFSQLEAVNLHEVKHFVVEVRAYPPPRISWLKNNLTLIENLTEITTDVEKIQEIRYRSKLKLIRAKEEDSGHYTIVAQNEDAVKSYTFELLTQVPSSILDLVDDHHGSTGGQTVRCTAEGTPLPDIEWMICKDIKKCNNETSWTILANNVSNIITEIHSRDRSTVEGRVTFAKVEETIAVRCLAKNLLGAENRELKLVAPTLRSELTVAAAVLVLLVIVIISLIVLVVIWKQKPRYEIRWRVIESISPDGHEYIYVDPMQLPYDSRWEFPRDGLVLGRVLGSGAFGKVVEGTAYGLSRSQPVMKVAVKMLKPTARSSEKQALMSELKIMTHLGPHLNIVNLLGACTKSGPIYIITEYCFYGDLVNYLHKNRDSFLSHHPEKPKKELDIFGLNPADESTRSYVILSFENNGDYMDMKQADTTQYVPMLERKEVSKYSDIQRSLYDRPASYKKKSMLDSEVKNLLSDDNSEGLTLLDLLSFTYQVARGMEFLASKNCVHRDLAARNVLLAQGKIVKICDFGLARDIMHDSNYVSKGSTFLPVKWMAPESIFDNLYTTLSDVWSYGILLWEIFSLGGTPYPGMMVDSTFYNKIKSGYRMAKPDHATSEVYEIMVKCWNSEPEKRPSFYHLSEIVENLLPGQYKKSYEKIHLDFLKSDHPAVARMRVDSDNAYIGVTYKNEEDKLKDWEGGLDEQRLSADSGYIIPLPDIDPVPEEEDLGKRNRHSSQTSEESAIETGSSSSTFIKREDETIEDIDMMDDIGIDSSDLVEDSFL

Regarding `CC(C)Cc1nc(-c2ccc3[nH]nc(-c4ccc5cc(OCCN6CCCC6)ccc5c4)c3c2)n[nH]1` [CC002, 5-(5-Isobutyl-1H-[1,2,4]Triazol-3-yl)-3-[6-(2-Pyrrolidin-1-yl-Ethoxy)-Naphthalen-2-yl]-1H-Indazole], the “Inhibitory activity (% of control), CHK1(h)” value at CHK1(h) is 12 % of control. The “Inhibitory activity (% of control), CHK2(h)” value on CHK2(h) is on record as 1 % of control. In addition, the “Inhibitory activity (% of control), PDGFRα(h)” value on PDGFRα(h) was 71 % of control. For the same compound, the “Inhibitory activity (% of control), PKCε(h)” value on PKCε(h) is listed as 58 % of control.
The corresponding values for `CCN1CCC[C@H]1COc1ccc2cc(-c3n[nH]c4ccc(-c5nc(CC(C)(C)C)n[nH]5)cc34)ccc2c1` [CC005, 2-[((2s)-1-ethylpyrrolidin-2-yl)methoxy]-6-{5-[3-(2,2-Dimethylpropyl)(1H-1,2,4,-triazol-5-yl)](1H-indazol-3-yl)}naphthalene] are 6 % of control, 1 % of control, 28 % of control and 84 % of control.
`Fc1ccc(-c2n[nH]c3ccc(-c4n[nH]c(C5CCCC5)n4)cc23)cc1` [CC006, 5-(5-Cyclopentyl-1H-[1,2,4]triazol-3-yl)-3-(4-fluoro-phenyl)-1H-indazole, reference compound]: the “Inhibitory activity (% of control), CHK1(h)” value on CHK1(h) is 70 % of control. The “Inhibitory activity (% of control), CHK2(h)” value at CHK2(h) is recorded as 20 % of control. Moreover, the “Inhibitory activity (% of control), PDGFRα(h)” value at PDGFRα(h) is reported as 86 % of control. Moreover, the “Inhibitory activity (% of control), PKCε(h)” value at PKCε(h) is given as 82 % of control.
The corresponding values for `COc1ccc2cc(-c3n[nH]c4ccc(-c5n[nH]c(CN6CCOCC6)n5)cc34)ccc2c1` [CC001, 3-(6-Methoxynaphthalen-2-yl)-5-(5-Morpholin-4-Ylmethyl-1H-[1,2,4]Triazol-3-yl)-1H-Indazole] are 36 % of control, 2 % of control, 72 % of control and 82 % of control.
The corresponding values for `CC(C)(C)Cc1nc(-c2ccc3[nH]nc(-c4ccc5cc(OCc6ccccn6)ccc5c4)c3c2)n[nH]1` [CC004, 5-[5-(2,2-Dimethyl-propyl)-1H-[1,2,4]triazol-3-yl]-3-[6-(pyridine-2-ylmethoxy)-naphthalen-2-yl]-1H-indazole] are 64 % of control, 7 % of control, 77 % of control and 105 % of control.
The corresponding values for `O=C(NC1CCCC1)c1cccc(-c2n[nH]c3ccc(-c4nc[nH]n4)cc23)c1` [CC007, 3-(5-(1H-1,2,4-triazol-3-yl)(1H-indazol-3-yl))phenyl-N-cyclopentylcarboxamide, reference compound] are 90 % of control, 6 % of control, 108 % of control and 79 % of control.
